From patent publication US8927548B2, “Triazole compounds that modulate HSP90 activity” (Synta Pharmaceuticals Corp., priority 2006, dated 2015) come the findings set out here.

Usually IC50 stands for the concentration needed to halve the response being measured. Low readings indicate higher potency, high ones lower potency.

Structures can show the parent of a compound that is named as a salt.

For one test, the system named is Her2. Kind of test: Degradation of Her2 in BT-474 cells, Method 1 (Western blot). It is filed as cell-based, human. The settings on record: 0.5 μM, overnight. On the procedure: Human high-Her2 breast carcinoma BT474 (HTB-20), SK-BR-3 (HTB-30) and MCF-7 breast carcinoma (HTB-22) from American Type Culture Collection, VA, USA were grown in Dulbecco's modified Eagle's medium with 4 mM L-glutamine and antibiotics ([…] penicillin and 100 μg/ml streptomycine; GibcoBRL). To obtain exponential cell growth, cells were trypsinized, counted and seeded at a cell density of 0.5×10^6 cells/ml regularly, every 3 days. All experiments were performed on day 1 after cell passage.
BT-474 cells are treated with 0.5 μM, 2 μM, or 5 μM of 17AAG (a positive control) or 0.5 μM, 2 μM, or 5 μM of a compound of the invention overnight in DMEM medium. After treatment, each cytoplasmic sample is prepared from 1×10^6 cells by incubation of cell lysis buffer (#9803, cell Signaling Technology) on ice for 10 minutes. The resulting supernatant used as the cytosol fractions is dissolved with sample buffer for SDS-PAGE and run on a SDS-PAGE gel, blotted onto a nitrocellulose membrane by using semi-dry transfer. Non-specific binding to nitrocellulose is blocked with 5% skim milk in TBS with 0.5% Tween at room temperature for 1 hour, then probed with anti-Her2/ErB2 mAb (rabbit IgG, #2242, Cell Signaling) and anti-Tubulin (T9026, Sigma) as housekeeping control protein. […]
(In general: A western blot detects proteins with antibodies after separation by electrophoresis.)

The subject of the next test is Hsp90. Briefly: Degradation of Her2 / inhibition of Hsp90, Method 2: MV-4-11 cell survival after 72 hours (Cell Counting Kit-8). The test is classed as cell-based, human. The settings on record: Table 4, IC50 range, MV-4-11 cells. As for the experimental part:
MV-4-11 cells (20,000 cells/well) were cultured in 96-well plates and maintained at 37° C. for several hours. The cells were treated with a compound of the invention or 17AAG (a positive control) at various concentrations and incubated at 37° C. for 72 hours. Cell survival was measured with Cell Counting Kit-8 (Dojindo Laboratories, Cat. # CK04). […] Tables 4-6: IC50 range of compounds of the invention for inhibition of Hsp90
A general note: Tetrazolium assays rely on reduction of a dye to a coloured formazan, in cell work by metabolically active cells.

As for `C=CCNC1=C2C[C@@H](C)C[C@H](OC)[C@H](O)[C@@H](C)/C=C(\C)[C@H](OC(N)=O)[C@@H](OC)/C=C\C=C(/C)C(=O)NC(=CC1=O)C2=O` [Compound 17AAG, 17-allylamino-17-demethoxygeldanamycin], the “degradation of Her2” value in the test on Her2 is “partial degradation”.
On to `CC(=O)N1Cc2ccc(-n3c(O)nnc3-c3cc(C(C)C)c(O)cc3O)cc2C1` [Compound 23, 1-(5-(3-(2,4-dihydroxy-5-isopropylphenyl)-5-hydroxy-4H-1,2,4-triazol-4-yl)isoindolin-2-yl)ethanone], for which, in the test on Hsp90, the 50% inhibitory concentration (IC50) is less than 500 nM.
In the test with Hsp90, `CC(C)c1cc(-c2nnc(O)n2-c2ccc3c(c2)CCN3C(=O)C2CCC(N)CC2)c(O)cc1O` (stereo not drawn) [Compound 39, (4-Aminocyclohexyl)(5-(3-(2,4-dihydroxy-5-isopropylphenyl)-5-hydroxy-4H-1,2,4-triazol-4-yl)indolin-1-yl)methanone hydrochloride] yielded an IC50 of less than 1000 nM.
